From PubChem BioAssay (NCI)
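Five concentrations, 48 hours, 96-well plates. GI50 = concentration required for 50% inhibition of growth. TGI marks complete inhibition of growth.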

How the values were obtained:
Experiment in all cases: NCI-60 cell line screen, 48 h
A498 renal = system: A498 renal
TK-10 renal = system: TK-10 renal
KM12 colon = system: KM12 colon
OVCAR-5 ovarian = system: OVCAR-5 ovarian
SF-268 CNS = system: SF-268 CNS
NCI-H226 lung = system: NCI-H226 lung
HS 578T breast = system: HS 578T breast
MDA-MB-231 breast = system: MDA-MB-231 breast
PC-3 prostate = system: PC-3 prostate
BT-549 breast = system: BT-549 breast

| SMILES | TGI (A498 renal) [µM] | TGI (TK-10 renal) [µM] | TGI (KM12 colon) [µM] | TGI (OVCAR-5 ovarian) [µM] | TGI (SF-268 CNS) [µM] | TGI (NCI-H226 lung) [µM] | GI50 (A498 renal) [µM] | GI50 (KM12 colon) [µM] | GI50 (HS 578T breast) [µM] | TGI (HS 578T breast) [µM] | GI50 (MDA-MB-231 breast) [µM] | TGI (MDA-MB-231 breast) [µM] | GI50 (NCI-H226 lung) [µM] | GI50 (PC-3 prostate) [µM] | TGI (PC-3 prostate) [µM] | GI50 (BT-549 breast) [µM] | TGI (BT-549 breast) [µM] | GI50 (OVCAR-5 ovarian) [µM] | GI50 (SF-268 CNS) [µM] | GI50 (TK-10 renal) [µM] |
| --- | --- | --- | --- | --- | --- | --- | --- | --- | --- | --- | --- | --- | --- | --- | --- | --- | --- | --- | --- | --- |
| CC1(C)CC2CC(CC(C)(C)C2=O)C1=O | > 100 | > 100 | > 100 | > 100 | > 100 | – | – | – | – | – | – | – | – | – | – | – | – | – | – | – |
| NC(=O)NC12CC3CC(CC(F)(C3)C1)C2 | > 100 | > 100 | > 100 | > 100 | – | – | – | – | – | – | – | – | – | – | – | – | – | – | – | – |
| CCOc1ccc(NC(=O)C(=O)C(C(=O)c2ccc3ccccc3c2)C2OC(=O)c3ccccc32)cc1 (centres undefined) | 45.8 | > 100 | > 100 | 84.9 | 62.4 | 13.5 | – | – | – | – | – | – | – | – | – | – | – | – | – | – |
| COc1cc2c(cc1OC)[C@@H](Nc1ccc(F)cc1)C1COC(=O)[C@@H]1C2c1cc(OC)c(O)c(OC)c1 (some centres undefined) | 7.78 | 63 | > 64.5 | > 100 | > 67.1 | 1.64 | – | – | – | – | – | – | – | – | – | – | – | – | – | – |
| CNC(=O)OCc1c2ccncc2c(C)c2c1[nH]c1ccc(OC)cc12 | 0.458 | > 100 | > 100 | 0.808 | 0.79 | 0.784 | – | – | – | – | – | – | – | – | – | – | – | – | – | – |
| Cc1ccc(-c2csc(NC(=O)N3CCN(c4cc5c(cc4F)c(=O)c(C(=O)O)cn5C4CC4)CC3)n2)cc1 | 9.16 | – | > 100 | > 100 | > 100 | 8.85 | 0.572 | 0.458 | 0.666 | > 100 | 1.78 | 19.4 | 1.44 | 0.454 | > 100 | 0.345 | 2.65 | 0.867 | 0.371 | – |
| O=S(=O)(/C=C/CS(=O)(=O)c1ccccc1)c1ccccc1 | 82.3 | > 100 | 32.3 | > 100 | > 100 | 61.9 | – | – | – | – | – | – | – | – | – | – | – | – | – | – |
| COc1cnc2c(c1)C(=O)c1c-2n(CCCNC2=NCCS2)c(=O)c2cc(Cl)ccc12 | 19.8 | 3.09 | 2.82 | 3.45 | 2.06 | 2.29 | 1.29 | 1.33 | – | – | 1.52 | 3.07 | 0.687 | – | – | 1.05 | 2.56 | 1.82 | 0.088 | 1.66 |
| CCCN(CCC)C(=O)C(=O)c1c(N)[nH]n(-c2ccccc2)c1=O | > 100 | > 100 | > 100 | > 100 | > 100 | > 100 | – | – | – | – | – | – | – | – | – | – | – | – | – | – |
| Cc1ccc(-c2nc3nc(-c4ccccc4)nc(N4CCNCC4)c3o2)cc1 | 2.97 | 1.71 | 1.36 | 2.74 | 4.02 | 3.79 | 1.47 | 0.345 | – | – | 0.226 | 0.537 | 1.79 | 0.947 | 2.46 | 1.69 | 3.13 | 1.31 | 1.75 | 0.747 |
| COc1cccc(NC(=O)CC(=O)N2N=C(N3c4ccccc4Sc4ccccc43)CC2c2ccccc2)c1 (centres undefined) | > 100 | > 100 | > 100 | > 100 | > 100 | > 100 | – | – | – | – | – | – | – | – | – | – | – | – | – | – |
| COC1=C(C)C(=O)c2c(cc3c(c2O)C(C)(CCC=C(C)C)C(C)O3)C1=O (centres undefined) | 35 | > 100 | > 100 | > 100 | > 100 | 37.5 | – | – | – | – | – | – | – | – | – | – | – | – | – | – |
| O=C(O)c1nc(-c2ccc(Cl)c(Cl)c2)nc2ccc(Cl)cc12 | > 100 | > 100 | > 100 | > 100 | > 100 | – | – | – | – | – | – | – | – | – | – | – | – | – | – | – |
| COc1ccc2nc3cc(Cl)ccc3c(SCC(=O)Nc3ccccc3-c3ccccc3NC(=O)CSc3c4ccc(Cl)cc4nc4ccc(OC)cc34)c2c1 | > 100 | > 100 | > 100 | > 100 | > 100 | > 100 | – | – | – | – | – | – | – | – | – | – | – | – | – | – |
| COc1ccc(CC2(Cc3ccc(OC)cc3)CCOC2=O)cc1 | > 100 | > 100 | > 100 | > 100 | > 100 | > 100 | – | – | – | – | – | – | – | – | – | – | – | – | – | – |
| C[CH2][Sn]([CH2]C)([O]C(=O)c1ccccc1F)[O][Sn]([CH2]C)([CH2]C)[O]C(=O)c1ccccc1F | 37.4 | 32.1 | > 100 | > 71.4 | 50.7 | 37.6 | 22.5 | > 67.6 | – | – | – | – | 20.2 | – | – | – | – | > 49.3 | 23.2 | 18 |
| C[C@]12CCC(=O)CC1CCCC2=O (some centres undefined) | > 100 | > 100 | > 100 | – | > 100 | – | – | – | – | – | – | – | – | – | – | – | – | – | – | – |
| Cc1[nH]c2ccc(F)cc2c1-c1nc2c3cccnc3c3ncccc3c2[nH]1 | > 100 | > 100 | > 100 | > 100 | > 100 | > 100 | 0.944 | 0.391 | – | – | 0.277 | > 100 | 0.351 | 0.393 | > 100 | 0.295 | > 100 | 0.397 | 0.205 | 0.46 |
| CCOC(=O)/C(O)=C(/C(=O)OC)c1ccc(Cl)cc1 | > 100 | > 100 | > 100 | > 100 | > 100 | – | – | – | – | – | – | – | – | – | – | – | – | – | – | – |
| COc1ccc(C(=O)/C=C/c2cccc(Nc3ccnc4cc(Cl)ccc34)c2)cc1 | 55.3 | 4.59 | > 100 | > 100 | – | > 100 | 3 | 2.45 | 3.18 | > 100 | – | – | 1.78 | 2.51 | > 100 | – | – | 2.6 | – | 1.64 |
| C=C1CC[C@@H]2[C@](C)(COC(C)=O)[C@H](OC(C)=O)CC[C@@]2(C)[C@@H]1CC(Nc1ccc(S(=O)(=O)Nc2ccc(Cl)nn2)cc1)C1=CCOC1=O (some centres undefined) | 4.26 | 4.19 | 3.49 | 4.16 | 3.67 | – | 1.4 | 1.7 | 6.17 | > 100 | 1.9 | 3.96 | – | 2.24 | 5.25 | 1.58 | 3.14 | 2.01 | 1.8 | 2.13 |
| Cc1nn(C)c(COc2ccc(N3CCN(S(=O)(=O)N(C)C)CC3)cc2)c1-c1cccc2c(CCCOc3cccc4ccccc34)c(C(=O)O)n(CCN3CCOCC3)c12 | 6.59 | 15.5 | 13 | 23.5 | 15.8 | 15.9 | 2.3 | 3.5 | 2.95 | 14.7 | 2.26 | 5.9 | 3.19 | 3.27 | 10.7 | – | – | 3.96 | 3.66 | 3.47 |
